Entries after “also recorded” stand apart in the source; their conditions may differ.
Legend:
[1] = tested on: mouse model of adaptation following extensive ileocecal resection (ICR); assay: Weight change after ileocecal resection (ICR) in mice; format: in vivo; settings: for weight / weight gain compared to control after ICR: 56 day experiment, on and beyond postoperative day 21
Text: A mouse model of adaptation following intestinal resection was previously reported. Under the aid of an operating microscope and utilizing sedation with 2% isoflurane, a midline incision was made […] and the bowel was eviscerated (FIG. 7). […] Intestinal continuity was restored by end-to-end anastomosis and the abdomen of mice was closed (FIG. 9). The mice received one dose of intraperitoneal broad-spectrum antibiotics. In particular, C57 Black 6 mice of 8 to 10 weeks in age were subjected to ileocecal resection (FIG. 11). 5 animals were carried to post-operative day 56 in the usual fashion. Seven animals were carried to the same time point but supplemented with 2'Fucosyllactose. 2'FL was added to both liquid diet (LD) and standard diet (SD) with water to achieve a final concentration of 21⁄2 grams per liter. All animals were weighed once daily during the first week then once every other day thereafter. Male C57BL/6 mice (Jackson Labs, Me.) of 8 to 10 weeks of age were weighed and started on an exclusive polymeric formula diet one day prior to experiment start (Jevity 1 Cal, Abbott Nutrition, Columbus, Ohio). All mice were administered one dose of intraperitoneal Zosyn (at approximately 100 mg/kg) on experiment day 0. All animals were grouped by operation status and subgrouped into treatment and control arms (Table 4). Liquid diet was refreshed and weights obtained daily for 7 days then all mice were transitioned to a standard chow diet with access to water. Animals in both groups were weighed every other day and taken to 21 or 56 days for experiment completion. All animal studies were approved by the Cincinnati Children's Hospital Medical Center Institutional Animal Care and Use Committee. Non-operated animals were maintained as described above. Operated animals were taken to the operating room on experimental day 0 and underwent ileocecal resection (ICR) as previously described in […] et al. (2007) American journal of physiology Gastrointestinal and liver physiology 293: G1013-1022. Under the aid of an operating microscope and utilizing sedation with 2% isoflurane, a midline incision was made and the bowel eviscerated. The ileocecal junction was identified and approximately 12 cm of ileum and cecum were resected. Resected small bowel tissue and luminal contents were collected as described below. Intestinal continuity was restored by end-to-end anastomosis and the abdomen was closed (FIG. 28). ICR mice were then assigned to control or treatment subgroups, were administered analgesia with subcutaneous buprenorphine (0.05-0.1 mg/kg) and recovered overnight in a standard neonatal incubator warmed to approximately 38 degrees Celsius. Control (non-operated) animals were maintained as described above. Beginning on experiment day 0, treatment animals were supplemented with 2'-Fucosyllactose. 2'-FL was added to formula then water to a final concentration of 2.5 grams per liter. Formula was refreshed daily and water refreshed every other day. […] Intestinal length was compared across groups using the Wilcoxon rank-sum test as values were not normally distributed. Histologic count data was averaged per mouse across two samples and compared by the Wilcoxon rank-sum test. Weight data was analyzed using Stata version 13.0 (StataCorp LP, TX). Remaining morphometric and histologic data were analyzed using GraphPad Prism version 5 (GraphPad Software Inc, CA).

[2] = tested on: environmental enteropathy growth model; assay: Environmental enteropathy growth model (control diet or regional-based diet); format: in vivo, mouse; settings: 2.5 g/L in drinking water from 4 weeks of age
Text: FIG. 41 is a scheme showing a 2′-FL experiment: Environmental Enteropathy. All dams were placed on Regional-based Diet when their pups were 10 days old. At weaning (3 weeks of age), pups were placed on either control diet (CD) or continued on regional-based diet (RBD), which is a malnutrition diet lacking nutrients. At 4 weeks of age, the pups were given either plain drinking water or 2-FL (2.5 g/L) in sipper sacs. Sipper sacs were changed and weighed every other day. Mice and food were weighed twice a week. Stool was collected at weaning, 6 weeks of age, and 8 weeks of age. Mice were sacrificed at 8 weeks of age. To further support the findings of the beneficial effect of 2′ FL supplementation on infant growth, another experiment as outlined in FIG. 41 was performed. All dams were placed on Regional-based Diet when their pups were 10 days old. At weaning (3 wks of age), pups were placed on either control diet (CD) or continued on regional-based diet (RBD), which is a malnutrition diet lacking nutrients. At 4 wks of age, the pups were given either plain drinking water or 2-FL (2.5 g/L) in sipper sacs. Sipper sacs were changed and weighed every other day. Mice and food were weighed twice a week. Stool was collected at weaning, 6 weeks of age, and 8 weeks of age. Mice were sacrificed at 8 weeks of age.

## C[C@@H]1O[C@@H](O[C@H]2[C@H](O[C@H]3[C@H](O)[C@@H](O)C(O)O[C@@H]3CO)O[C@H](CO)[C@H](O)[C@@H]2O)[C@@H](O)[C@H](O)[C@@H]1O (some centres unmarked) [2′-FL, 2′-fucosyllactose]
[1]; 2′-FL supplemented ICR subgroup
  time to return to preoperative weight after ICR: 3 to 4 weeks
[1]; 2′-FL supplemented ICR subgroup, 2.5 grams per liter in formula then water
  body weight lost during the first postoperative week: approximately 10%
[1]
  weight / weight gain compared to control after ICR: improved growth; also recorded: increased weight gain; also recorded: gained more weight
[1]; listed as 2′FL
  weight / weight gain compared to control after ICR: improved late-term weight-gain profile
[1]; animals taken to harvest at postoperative day 21
  weight difference between control and 2′-FL supplemented subgroups: no significant weight difference
[1]; at 56 days after ICR, 2′-FL supplemented ICR subgroup
  percent of preoperative body weight achieved: 110%
[2]; control diet
  growth (weight change over time): increased growth
[2]; regional based diet (malnutrition diet)
  growth (weight change over time): did not increase growth

— patent US10857167B2, “Use of oligosaccharide compositions to enhance weight gain” (Children's Hospital Medical Center, priority 2015, dated 2020)
